System: Male C57BL mice with loperamide-induced constipation
Assay: Mouse model of loperamide-induced constipation
Format: in vivo
Conditions: Product 1 30 mg/kg oral gavage, 30 min after loperamide 10 mg/kg, final study day, compared to Loperamide/Vehicle
Experimental: Mouse Model of Loperamide-Induced Constipation
Male C57BL mice (6 to 8 weeks, 25-30 grams) were placed on high-fat diet (45% fat) and allowed to acclimate (singly housed on a 12 hr light/dark cycle) for 6 days. Loperamide was administered by oral gavage at 10 mg/kg (10% DMSO/90% of 20% SBE-β-CD in saline) for 3 consecutive days prior to study initiation.
Daily loperamide dosing was continued throughout the entire study. On the 4, day of loperamide administration, Product 1 (30 mg/kg in 10% DMSO/90% of 20% SBE-β-CD in saline) was administered 30 minutes later by oral gavage. Sequential treatment of loperamide and Product 1 (30 minutes post-loperamide dose) was continued for 2 additional days. On the final day of the study, a fourth group of animals received a single subcutaneous administration of naloxone (1 mg/kg) as a positive control.
On the final study day, the number of fecal pellets and pellet weights for each animal were recorded hourly for the 6 hours following dosing. Fecal pellet output was then recorded every other hour for the period of 6-12 hours post-dosing. Additionally, total fecal pellet count for the period of 12 to 24 hours was measured. Fecal pellets were dried for 24 hours and dry weight recorded.
Prism software (GraphPad Prism, San Diego, CA) was employed for graphs and curve fitting. Data was analyzed using a two-way ANOVA with post-hoc LSD test.

O=C(O)CC1CCC(c2ccc(-c3ccc(Nc4ccc(C(F)(F)F)nc4)cn3)cc2)CC1 (stereo not drawn) [Product 1]
significant increase: wet weights of fecal pellets (FPWW) (1-4 hours after administration, FIG. 2) | dry weights of fecal pellets (FPDW) (1-4 hours after administration, FIG. 3) | fecal pellet output (FPCO) (first 1-4 hours after administration, FIG. 1)

From patent publication US12343334B2, “Compositions and methods for treating severe constipation” (Serleva, Inc., priority 2018, dated 2025)
